By pIC50 is commonly meant −log10 of the IC50, conventionally taken in molar units.

pIC50: −log10 of the molar value.

What all share (type): functional, cell-based
The subject of assay [1] is RAW264.7. Put plainly: Antiinflammatory activity in LPS-induced mouse RAW264.7 cells assessed as inhibition of TNFalpha secretion preincubated for 1 hr followed by LPS addition measured for 24 hrs by ELISA method.
The test system of assay [2] is RAW264.7. Description: Antiinflammatory activity in LPS-induced mouse RAW264.7 cells assessed as inhibition of IL-1beta secretion preincubated for 1 hr followed by LPS addition for 24 hrs by ELISA method. Background: An ELISA detects its analyte on a solid surface through an enzyme-linked reagent.
The test system of assay [3] is RAW264.7. Description: Antiinflammatory activity in LPS-induced mouse RAW264.7 cells assessed as inhibition of IL-6 secretion preincubated for 1 hr followed by LPS addition for 24 hrs by ELISA method.

As to `COc1cc([C@H](O)[C@@H](CO)Oc2c(OC)cc([C@H]3OC[C@H]4[C@@H]3CO[C@@H]4c3cc(OC)c(O)c(OC)c3)cc2OC)ccc1O`, the pIC50 with RAW264.7 [1] was 4.29; with RAW264.7 [2], 4.96; in the assay with RAW264.7 [3], 5.62.

These data come from ChEMBL document CHEMBL6078615, “Sesquilignans: Current research and potential prospective” (Eur J Med Chem, 2024).
